The experiment addresses T1, CBM65B (EcCel5A) ([Eubacterium] cellulosolvens, UniProt Q3LHN3).
T1 sequence (Q3LHN3 581-713): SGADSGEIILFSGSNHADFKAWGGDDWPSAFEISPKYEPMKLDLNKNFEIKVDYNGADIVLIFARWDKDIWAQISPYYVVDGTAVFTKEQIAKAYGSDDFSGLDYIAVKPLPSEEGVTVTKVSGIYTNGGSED
The experiment in a line: ITC. Type of experiment: binding. To be noted: 50 mM Na-HEPES pH 7.5, 25 °C; n 1.

In the case of `OC[C@H]1O[C@@H](O[C@H]2[C@H](O)[C@@H](O)[C@H](O[C@H]3[C@H](O)[C@@H](O)[C@H](O[C@H]4[C@H](O)[C@@H](O)[C@H](O[C@H]5[C@H](O)[C@@H](O)[C@H](O[C@H]6[C@H](O)[C@@H](O)C(O)O[C@@H]6CO)O[C@@H]5CO)O[C@@H]4CO)O[C@@H]3CO)O[C@@H]2CO)[C@H](O)[C@@H](O)[C@@H]1O` (stereo partly shown) [C6, cellohexaose], the Ka is reported as 2.3 (±0.2) x 10^3.

The values above are taken from paper PMC3576085 (The Journal of Biological Chemistry, 2012).
